Where only a bound is given, the exact number is not on record here.

Chain of Sphingosine 1-phosphate receptor 1 (P21453 whole entry): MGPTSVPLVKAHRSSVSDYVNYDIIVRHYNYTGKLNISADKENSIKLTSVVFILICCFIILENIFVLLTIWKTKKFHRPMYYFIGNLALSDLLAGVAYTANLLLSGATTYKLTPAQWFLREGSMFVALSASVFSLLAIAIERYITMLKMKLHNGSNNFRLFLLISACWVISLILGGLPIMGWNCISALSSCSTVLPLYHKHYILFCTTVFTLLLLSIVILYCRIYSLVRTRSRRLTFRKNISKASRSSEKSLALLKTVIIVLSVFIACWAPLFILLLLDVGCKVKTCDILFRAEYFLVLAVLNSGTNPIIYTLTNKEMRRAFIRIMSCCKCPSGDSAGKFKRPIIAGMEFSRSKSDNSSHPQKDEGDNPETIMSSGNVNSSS

One assay concerns the target Sphingosine 1-phosphate receptor 1 (Homo sapiens, UniProt P21453). In words: S1P1 agonism potentiation – cell-based, potentiator mode, 60K MLSMR set, dose response (AID 466).
Conditions: not given
Broadly, the EC50 is the concentration needed to bring the measured effect to its halfway point. In the case of `CCN(CC)c1ccc2cc(NC(=O)CCC(=O)O)c(=O)oc2c1` [4-[[7-(diethylamino)-2-keto-chromen-3-yl]amino]-4-keto-butyric acid], the half-maximal effective concentration (EC50) is 8.31 µM.

For the compound `C=C(C)COc1ccc(-c2nc(N)nc(C)c2Oc2ccccc2OC)c(O)c1` [(6E)-6-[2-amino-5-(2-methoxyphenoxy)-6-methyl-1H-pyrimidin-4-ylidene]-3-(2-methylallyloxy)cyclohexa-2,4-dien-1-one], the EC50 stood at 2.79 µM.

For the compound `c1ccc(CSc2nnc(-c3c[nH]c4ccccc34)o2)cc1`, the 50% effective concentration (EC50) worked out at 1.59 µM.

Regarding `Nc1ccc(N2CCOCC2)c(Cl)c1` [(3-chloro-4-morpholino-phenyl)amine], the half-maximal effective concentration (EC50) is 0.981 µM.

On to `COc1ccc(CCNc2c(C)c(C)nc3ncnn23)cc1` [(5,6-Dimethyl-[1,2,4]triazolo[1,5-a]pyrimidin-7-yl)-[2-(4-methoxy-phenyl)-ethyl]-amine], for which the 50% effective concentration (EC50) was 3.72 µM.

`COCC(=O)Nc1cccc(C(F)(F)F)c1` [2-methoxy-N-[3-(trifluoromethyl)phenyl]acetamide]: the EC50 was more than 95 µM.

In the case of `CCOc1ccc(S(=O)(=O)n2cnc3cc(C)c(C)cc32)cc1` [1-(4-Ethoxy-benzenesulfonyl)-5,6-dimethyl-1H-benzoimidazole], the EC50 was 8.29 µM.

`COc1ccc(-n2c(C)cc(C(=O)CSc3nnc(-c4cccs4)o3)c2C)cc1` [1-[1-(4-methoxyphenyl)-2,5-dimethyl-3-pyrrolyl]-2-[(5-thiophen-2-yl-1,3,4-oxadiazol-2-yl)thio]ethanone]: the EC50 came out at 1.96 µM.

With `CCOC(=O)c1c(C)[nH]c(C(=O)C(C)OC(=O)c2cccc(OCc3c(C)noc3C)c2)c1C` (stereo unspecified) [MLS000054923], the concentration for a half-maximal effect (EC50) was 4.58 µM.

Regarding `O=C(Cc1c[nH]c2ccccc12)N1CCc2ccccc21`, the concentration for a half-maximal effect (EC50) stood at 7.74 µM.

`Fc1ccc(COc2ccc(C=Nn3cnnc3)cc2)cc1` [1-[4-[(4-fluorophenyl)methoxy]phenyl]-N-(1,2,4-triazol-4-yl)methanimine]: the EC50 came out at 6.53 µM.

Turning to `COc1ccc(-c2cn3c(C)c(C(=O)N4CCCc5ccccc54)sc3n2)cc1` [3,4-dihydro-2H-quinolin-1-yl-[6-(4-methoxyphenyl)-3-methyl-2-imidazo[2,1-b]thiazolyl]methanone], the 50% effective concentration (EC50) is more than 30 µM.

Take `O=C(C1CCCN1S(=O)(=O)c1cccc2cccnc12)N1CCN(c2ccccc2)CC1` (stereo unspecified) [(4-phenyl-1-piperazinyl)-[1-(8-quinolinylsulfonyl)-2-pyrrolidinyl]methanone]: the EC50 was more than 95 µM.

For the compound `CCOc1ccc(-c2noc(-c3ccncc3)n2)cc1OCC` [3-(3,4-diethoxyphenyl)-5-(4-pyridyl)-1,2,4-oxadiazole], the EC50 amounted to 0.428 µM.

In the case of `O=C(Nc1ccc(O)cc1)c1cc2n(n1)C(C(F)(F)F)CC(c1ccco1)N2` (stereo unspecified) [5-(2-furanyl)-N-(4-hydroxyphenyl)-7-(trifluoromethyl)-1,5,6,7-tetrahydropyrazolo[1,5-a]pyrimidine-2-carboxamide], the EC50 worked out at 3.29 µM.

On to `Cc1noc(/C=C/N(C)C)c1S(=O)(=O)N1CCc2ccccc21` [(E)-2-[4-(2,3-dihydroindol-1-ylsulfonyl)-3-methyl-1,2-oxazol-5-yl]-N,N-dimethyl-ethenamine], for which the concentration giving a half-maximal response (EC50) was more than 95 µM.

Turning to `CCOc1ccc(-c2nc(-c3ccccc3)no2)cc1OCC` [5-(3,4-diethoxyphenyl)-3-phenyl-1,2,4-oxadiazole], the half-maximal effective concentration (EC50) came to 0.107 µM.

In the case of `CCOc1ccc(-c2nnc(-c3ccco3)o2)cc1OCC` [2-(3,4-Diethoxy-phenyl)-5-furan-2-yl-[1,3,4]oxadiazole], the concentration for a half-maximal effect (EC50) is 1.04 µM.

For the compound `COCCn1c(C)cc(C(=O)CSc2nc3ccccc3c(=O)[nH]2)c1C` [2-[[2-[1-(2-methoxyethyl)-2,5-dimethyl-3-pyrrolyl]-2-oxoethyl]thio]-1H-quinazolin-4-one], the EC50 was 64.4 µM.

As to `Cc1nnc(SCC(=O)N2CCC(c3noc4ccc(F)cc34)CC2)s1` [1-[4-(5-fluoranyl-1,2-benzoxazol-3-yl)piperidin-1-yl]-2-[(5-methyl-1,3,4-thiadiazol-2-yl)sulfanyl]ethanone], the EC50 came to 8.2 µM.

With `COc1cccc(N2CCN(c3ncnc4c3[nH]c3ccccc34)CC2C)c1` (stereo unspecified) [4-[4-(3-methoxyphenyl)-3-methyl-1-piperazinyl]-5H-pyrimido[5,4-b]indole], the half-maximal effective concentration (EC50) is 3.57 µM.

In the case of `CCCc1ccc(Oc2c[nH]nc2-c2ccc(O)cc2O)cc1` [(4E)-3-hydroxy-4-[4-(4-propylphenoxy)-1,2-dihydropyrazol-3-ylidene]-1-cyclohexa-2,5-dienone], the EC50 was 18.2 µM.

On to `Fc1ccc2[nH]c3c(N4CCN(Cc5ccc6c(c5)OCO6)CC4)ncnc3c2c1` [4-[4-(1,3-benzodioxol-5-ylmethyl)-1-piperazinyl]-8-fluoro-5H-pyrimido[5,4-b]indole], for which the concentration for a half-maximal effect (EC50) is 2 µM.

For `COc1ccccc1-c1cc(C(=O)Nc2ccccc2SC)no1` [5-(2-methoxyphenyl)-N-(2-methylsulfanylphenyl)-1,2-oxazole-3-carboxamide], the EC50 stood at 5.75 µM.

Regarding `Clc1ccc(OCc2nnc(-c3ccccc3Br)o2)c(Cl)c1` [2-(2-bromophenyl)-5-[(2,4-dichlorophenoxy)methyl]-1,3,4-oxadiazole], the EC50 is more than 95 µM.

For the compound `Cc1nc2ccccc2c2oc(C(=O)NCC3COc4ccccc4O3)cc12` (stereo unspecified) [MLS000118430], the concentration giving a half-maximal response (EC50) is 9.7 µM.

On to `CCSc1nnc(NC(=O)C(Cc2ccccc2)n2cccc2)s1` (stereo unspecified) [MLS000119034], for which the concentration for a half-maximal effect (EC50) is more than 30 µM.

As to `CC1=NC(=O)NC(c2ccc(F)cc2)C1C(=O)OCc1ccc2c(c1)OCO2` (stereo unspecified) [1,3-benzodioxol-5-ylmethyl 4-(4-fluorophenyl)-6-methyl-2-oxidanylidene-3,4-dihydro-1H-pyrimidine-5-carboxylate], the half-maximal effective concentration (EC50) is 0.631 µM.

As for `CCN=c1scc(-c2ccc3c(c2)NC(=O)CO3)n1N=C1CCCC1` [MLS000054638], the EC50 worked out at 7.16 µM.

In the case of `O=C(c1cc(-c2ccc(O)cc2)on1)N1CCc2ccccc2C1` [4-[3-(3,4-dihydro-1H-isoquinolin-2-ylcarbonyl)-2H-1,2-oxazol-5-ylidene]cyclohexa-2,5-dien-1-one], the EC50 stood at 4.07 µM.

As to `Cc1ccc(-c2csc(N3CCC(NS(=O)(=O)c4ccc5c(c4)OCCO5)CC3)n2)cc1` [N-[1-[4-(4-methylphenyl)-1,3-thiazol-2-yl]piperidin-4-yl]-2,3-dihydro-1,4-benzodioxine-6-sulfonamide], the EC50 was determined as 1.4 µM.

As for `CCOc1ccc(-c2nc(-c3ccc(OC)cc3)no2)cc1OCC` [5-(3,4-Diethoxy-phenyl)-3-(4-methoxy-phenyl)-[1,2,4]oxadiazole], the half-maximal effective concentration (EC50) was 0.732 µM.

For the compound `CCC(NC(C)c1ccccc1)=C1C(=O)N(C)C(=O)N(C)C1=O` (stereo unspecified) [SMR000043429], the EC50 is 14.4 µM.

For `CCN(C1CCCCC1)S(=O)(=O)c1ccc(S(=O)(=O)NCc2ccncc2)cc1` [4-N-cyclohexyl-4-N-ethyl-1-N-(pyridin-4-ylmethyl)benzene-1,4-disulfonamide], the EC50 was determined as 7.02 µM.

Still in this assay, the particulars now being: inactive by the depositor's call.
On to `CCN(CC)S(=O)(=O)c1cccc(S(=O)(=O)c2cccc(S(=O)(=O)N(CC)CC)c2)c1` [3-[3-(diethylsulfamoyl)phenyl]sulfonyl-N,N-diethyl-benzenesulfonamide], for which the half-maximal effective concentration (EC50) stood at 23.4 µM.

In the case of `CC(=O)N1C=CN(C(C)=O)C(c2cn(C)c3ccccc23)C1c1cn(C)c2ccccc12` (stereo unspecified) [1-[4-acetyl-2,3-bis(1-methyl-3-indolyl)-2,3-dihydropyrazin-1-yl]ethanone], the EC50 worked out at 20.9 µM.

Turning to `CCOC(=O)c1oc2ccc(S(=O)(=O)n3nc(-c4ccc(OC)cc4)cc3N)cc2c1C` [5-[5-amino-3-(4-methoxyphenyl)pyrazol-1-yl]sulfonyl-3-methyl-coumarilic acid ethyl ester], the EC50 came to 44.3 µM.

`c1ccc(N2CCN(Cc3ccnc4ccccc34)CC2)cc1` [4-[(4-phenyl-1-piperazinyl)methyl]quinoline]: the EC50 worked out at 10.6 µM.

For `CC(C)[C@H](NC(=O)OC(C)(C)C)c1nnc(SCC(=O)Nc2ccc(Br)cc2)o1` [MLS000040800], the EC50 is 16.2 µM.

Consider `O=S1(=O)C=C(Sc2nnc(-c3ccccc3)o2)c2ccccc21`, for which the EC50 was determined as 23.5 µM.

As to `Oc1nnc(Sc2ncnc3sccc23)n1CCc1ccccc1` [4-(2-phenylethyl)-3-(4-thieno[2,3-d]pyrimidinylthio)-1H-1,2,4-triazol-5-one], the EC50 was determined as 15 µM.

Consider `COc1ccccc1-c1nc(-c2ccc(Br)cc2)no1` [3-(4-bromophenyl)-5-(2-methoxyphenyl)-1,2,4-oxadiazole], for which the 50% effective concentration (EC50) turned out to be 10.1 µM.

In the case of `Clc1ccc(CSc2nnc(-c3ccncc3)o2)c(Cl)c1` [2-[(2,4-dichlorobenzyl)thio]-5-(4-pyridyl)-1,3,4-oxadiazole], the concentration giving a half-maximal response (EC50) turned out to be 38.5 µM.

With `CS(=O)(=O)n1nc(OC(=O)c2cccc3ccccc23)cc1N` [(5-amino-1-methylsulfonylpyrazol-3-yl) naphthalene-1-carboxylate], the concentration giving a half-maximal response (EC50) came to 11.9 µM.

Consider `O=C(c1cc(-c2ccccc2)on1)N1CCN(Cc2ccc3c(c2)OCO3)CC1` [(5-phenylisoxazol-3-yl)-(4-piperonylpiperazino)methanone], for which the EC50 is 58.7 µM.

As to `COc1ccc(-n2c(C)cc(C(=O)COC(=O)Cn3cnc4ccccc43)c2C)cc1` [2-(1-benzimidazolyl)acetic acid [2-[1-(4-methoxyphenyl)-2,5-dimethyl-3-pyrrolyl]-2-oxoethyl] ester], the EC50 came out at 11.6 µM.

In the case of `CC1=C(/C=C/C(C)=C/C=C/C(C)=C/C(=O)O)C(C)(C)CCC1` [ALL-TRANS-RETINOIC ACID], the concentration giving a half-maximal response (EC50) amounted to 34.1 µM.

For the compound `CN(CC1CCCO1)S(=O)(=O)c1ccc(C(=O)Nc2nc(-c3ccccn3)cs2)cc1` (stereo unspecified) [4-[methyl(2-oxolanylmethyl)sulfamoyl]-N-[4-(2-pyridinyl)-2-thiazolyl]benzamide], the 50% effective concentration (EC50) stood at 24 µM.

For `O=C(Nc1nc(-c2nc3ccccc3s2)cs1)c1ccc(S(=O)(=O)N2CCOCC2)cc1` [MLS000087900], the EC50 was determined as 15.5 µM.

On to `Cn1cccc1C(=O)OCc1cc(Cl)cc2c1OCOC2` [(6-chloranyl-4H-1,3-benzodioxin-8-yl)methyl 1-methylpyrrole-2-carboxylate], for which the 50% effective concentration (EC50) worked out at 17.2 µM.

With `Cc1ccc2nc(NC(=O)CSc3nc4c(c(=O)n3C)SC(C)C4)sc2c1` (stereo unspecified) [2-[(3,6-dimethyl-4-oxidanylidene-6,7-dihydrothieno[3,2-d]pyrimidin-2-yl)sulfanyl]-N-(6-methyl-1,3-benzothiazol-2-yl)ethanamide], the concentration giving a half-maximal response (EC50) was determined as 16.5 µM.

Values taken from BindingDB's records for doi:10.7270/Q2ZC817P (The Scripps Research Institute Molecular Screening Center, 2007).
